Measurements reported in the CheMixHub viscosity set.

Assay: xn = mol fraction of the nth substance listed

O=C(CO)[C@@H](O)[C@H](O)[C@H](O)CO + C[N+](C)(C)CCO.[Cl-]
100 kPa, x2 = 0.6
Settings	viscosity [mPa·s]
313.2 K	1645
318.2 K	1057

Cc1ccccn1 + Cc1ccccc1
viscosity [mPa·s], 101 kPa
Settings	x2 = 0.2	x2 = 0.4	x2 = 0.6	x2 = 0.8
293.15 K	0.76	0.714	0.668	0.624
313.15 K	0.593	0.558	0.525	0.494

NC1CCCCC1 + Cc1ccccc1
303.15 K, 101 kPa
Settings	viscosity [mPa·s]
x2 = 0.1242	1.381
x2 = 0.2292	1.177
x2 = 0.3268	1.013
x2 = 0.4121	0.8791
x2 = 0.5347	0.7115
x2 = 0.6445	0.6079
x2 = 0.7365	0.5443
x2 = 0.8431	0.4838
x2 = 0.922	0.4617

ClC=C(Cl)Cl + ClC(Cl)(Cl)Cl
303.15 K, 101.33 kPa
Settings	viscosity [mPa·s]
x1 = 0.2969	0.699
x1 = 0.7481	0.555
x1 = 0.7605	0.551
x1 = 0.8498	0.539
x1 = 0.9286	0.526

ClC=C(Cl)Cl + ClC(Cl)Cl
303.15 K, 101.33 kPa
Settings	viscosity [mPa·s]
x1 = 0.1451	0.517
x1 = 0.2431	0.521
x1 = 0.3368	0.521
x1 = 0.4687	0.521
x1 = 0.5793	0.519
x1 = 0.6718	0.519
x1 = 0.7912	0.519
x1 = 0.868	0.518
x1 = 0.9526	0.518

O=C1CCCC1 + Clc1ccccc1
298.15 K, 101 kPa
Settings	viscosity [mPa·s]
x2 = 0.0165	1.122
x2 = 0.0498	1.117
x2 = 0.1006	1.108
x2 = 0.1542	1.097
x2 = 0.2087	1.084
x2 = 0.266	1.068
x2 = 0.3245	1.05
x2 = 0.3841	1.023
x2 = 0.4488	0.993
x2 = 0.5148	0.959
x2 = 0.5836	0.92
x2 = 0.6542	0.882
x2 = 0.739	0.835
x2 = 0.8057	0.802
x2 = 0.8869	0.769
x2 = 0.9704	0.745

C1COCCN1 + NCCO
viscosity [mPa·s], 101 kPa
Settings	293.15 K	303.15 K	313.15 K	323.15 K
x1 = 0.06557	20.7	–	–	–
x1 = 0.06901	–	–	8.726	–
x1 = 0.07	21.21	13.58	8.71	6.21
x1 = 0.2	14.61	9.65	6.44	4.68
x1 = 0.2273	–	–	6.709	–
x1 = 0.2293	14.65	–	–	–
x1 = 0.4	9.19	6.31	4.57	3.36
x1 = 0.4108	–	–	4.506	–
x1 = 0.4137	9.258	–	–	–
x1 = 0.6	5.53	3.97	2.94	2.24
x1 = 0.616	5.651	–	–	–
x1 = 0.6175	–	–	3.337	–
x1 = 0.8608	3.673	–	–	–
x1 = 0.8622	–	–	2.454	–
x1 = 0.9	3.22	2.54	1.98	1.61

O=C1CCCC1 + Nc1cccc(Cl)c1
viscosity [mPa·s], 100 kPa
Settings	x2 = 0.0805	x2 = 0.1814	x2 = 0.2804	x2 = 0.3815	x2 = 0.4998	x2 = 0.5995	x2 = 0.6995	x2 = 0.7875	x2 = 0.9071
303.15 K	1.111	1.291	1.493	1.731	2.058	2.379	2.752	3.127	3.719
308.15 K	1.047	1.211	1.395	1.611	1.903	2.19	2.521	2.852	3.373
313.15 K	0.9683	1.117	1.282	1.474	1.734	1.987	2.278	2.568	3.023
318.15 K	0.9063	1.039	1.185	1.354	1.58	1.799	2.049	2.296	2.681
